Results on 19 compounds are retold here after US9365522B2, “Pyrazole amide derivative” (AMGEN INC., priority 2015, dated 2016).

This assay has as its target T1, human RORγ-LBD (Homo sapiens, UniProt P51449).
T1 construct: made in house; host or cells: E. coli (BL-21)
T1 sequence (P51449 262-518): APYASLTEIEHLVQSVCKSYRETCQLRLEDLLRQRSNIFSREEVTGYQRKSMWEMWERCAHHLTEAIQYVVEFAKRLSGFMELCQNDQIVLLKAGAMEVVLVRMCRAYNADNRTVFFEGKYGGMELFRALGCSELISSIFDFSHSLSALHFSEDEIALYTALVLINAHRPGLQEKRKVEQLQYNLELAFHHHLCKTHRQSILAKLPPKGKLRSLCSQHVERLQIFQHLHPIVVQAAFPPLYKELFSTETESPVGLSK
Description: ROR gamma coactivator peptide recruitment Alphascreen assay (RORγ-LBD binding to GRIP1 coactivator peptide). Type of assay: biochemical. Conditions: 5 nM human RORγ-LBD, 30 nM 7-β-hydroxycholesterol, 50 nM biotinylated GRIP1 coactivator peptide, overnight incubation at room temperature; read-out: result (pIC50, RORγ coactivator peptide recruitment Alphascreen assay) (converted). The text has this:
Alphascreen™ is a bead-based amplified homogenous luminescent proximity assay that can be used for measuring the effect of compounds on protein-protein interactions. When biological interactions bring donor and acceptor beads into close proximity, reactive oxygen, generated upon laser excitation of the donor beads, initiates a luminescence/fluorescence cascade in the acceptor beads that leads to a highly amplified signal that can be measured as light in the 520-620 nm range. When the acceptor and donor beads are not in proximity, the reactive oxygen decays and only a very low background signal is generated.
An in vitro assay to assess inhibition of RORγ binding to the coactivator GRIP1 was established using Alphascreen™ technology. The interaction between nuclear receptors (NR) and coactivator proteins is a key step in signal transduction from the receptor to the transcriptional machinery and can be measured in vitro using only the ligand binding domain of the nuclear receptor and a peptide containing a coactivator protein LXXLL nuclear receptor binding motif
For the RORγ construct used in the coactivator recruitment assay, nucleotides corresponding to the ligand binding domain (LBD) of wild type human RORγ (amino acids 262-518 of Genbank Accession No. NM_005060.3) were cloned into the pET24 expression vector (Novagen), downstream of in-frame N-terminal 6×His and Flag tag sequences. Recombinant 6×His:Flag-tagged human RORγ-LBD protein was expressed in E. coli (BL-21) and purified by affinity chromatography on a nickel Sepharose column, followed by anion exchange chromatography.
A 4× assay mixture of 6×His:Flag-tagged human RORγ-LBD with the agonist ligand 7-β-hydroxycholesterol was prepared in assay buffer (50 mM HEPES pH 7.4, BSA 0.05%, 150 mM NaCl, 5 mM MgCl2, 1 mM DTT, 0.01% Tween-20). For control wells a 4× mixture of 6×His:Flag-tagged human ROR gamma LBD alone was also prepared.
A 4× stock of biotinylated coactivator peptide containing the LXXLL motif from GRIP1 (Biotin-[…]) was prepared in assay buffer.
A 4×detection mixture of nickel chelate Alphascreen™ acceptor beads (PerkinElmer) and streptavidin Alphascreen™ donor beads (PerkinElmer) was prepared in assay buffer.
Compounds to be tested were arranged in a pre-dose 384-well mother plate serially diluted 1 in 2 over 22 columns, in 100% DMSO, at 40× the final test concentration, from a high concentration of 4 mM. DMSO with no compound was placed in control columns. The compounds were robotically dispensed directly into assay plates containing assay buffer to a 4× final test concentration.
Following compound addition, the 6×His:Flag-tagged human RORγ-LBD plus 7-β-hydroxycholesterol assay mixture, biotinylated coactivator peptide and detection mixture were added. Final assay conditions were 5 nM 6×His:Flag-tagged human RORγ-LBD, 30 nM 7-β-hydroxycholesterol, 50 nM biotinylated coactivator peptide, 2.5 ug/ml nickel acceptor beads and 10 ug/ml streptavidin donor beads. The final concentration of DMSO in the assay was 2.5%.
After overnight incubation at room temperature plates were read on and Envision™ plate reader (PerkinElmer).
Data was plotted and pIC50 values were calculated using the Genedata Screener™ data analysis suite (Genedata).
(Bead proximity is the source of the signal in Alpha formats.)
In the case of `C[C@H]1C[C@H](n2ncc(C(=O)N(CC(=O)c3c(Cl)cncc3Cl)C[C@@H]3CCC(C)(C)O3)c2C(F)(F)F)CCC1C(=O)O` (stereo in doubt) [Example 773, (1S,2S,4R)-4-(4-((2-(3,5-dichloro-4-pyridinyl)-2-oxoethyl)(((2S)-5,5-dimethyltetrahydro-2-furanyl)methyl)carbamoyl)-5-(trifluoromethyl)-1H-pyrazol-1-yl)-2-methylcyclohexanecarboxylic acid], the IC50 was 81.3 nM. Then `C[C@@H]1CC(n2ncc(C(=O)N(CC(=O)c3c(Cl)cccc3Cl)CC(C)(C)C)c2C(F)(F)F)CCC1C(=O)O` (stereo in doubt) [Example 794, (1S,2R,4S)-4-(4-((2-(2,6-dichlorophenyl)-2-oxoethyl)(2,2-dimethylpropyl)carbamoyl)-5-(trifluoromethyl)-1H-pyrazol-1-yl)-2-methylcyclohexanecarboxylic acid], with 2.95 nM; and `C[C@H]1C[C@](C)(C(=O)O)CC[C@H]1n1ncc(C(=O)N(CC(=O)c2c(Cl)cncc2Cl)CC(C)(C)C)c1C(F)(F)F` (stereo in doubt) [Example 842, (1R,3S,4R)-4-(4-((2-(3,5-dichloro-4-pyridinyl)-2-oxoethyl)(2,2-dimethylpropyl)carbamoyl)-5-(trifluoromethyl)-1H-pyrazol-1-yl)-1,3-dimethylcyclohexanecarboxylic acid], with 309 nM; and `C[C@@H]1C[C@](C)(C(=O)O)CC[C@H]1n1ncc(C(=O)N(CC(=O)c2c(Cl)cncc2Cl)CC(C)(C)C)c1C(F)(F)F` (stereo in doubt) [Example 855, (1R,3R,4R)-4-(4-((2-(3,5-dichloro-4-pyridinyl)-2-oxoethyl)(2,2-dimethylpropyl)carbamoyl)-5-(trifluoromethyl)-1H-pyrazol-1-yl)-1,3-dimethylcyclohexanecarboxylic acid], with 5.75 nM. Then `CC1C[C@@H](n2ncc(C(=O)N(CC(=O)c3c(Cl)cncc3Cl)CC(C)(C)C)c2C(F)(F)F)CC[C@]1(C)C(=O)O` (stereo in doubt) [Example 861, (1S,2S,4S)-4-(4-((2-(3,5-dichloro-4-pyridinyl)-2-oxoethyl)(2,2-dimethylpropyl)carbamoyl)-5-(trifluoromethyl)-1H-pyrazol-1-yl)-1,2-dimethylcyclohexanecarboxylic acid], with 4.79 nM; and `C[C@H]1C[C@@H](n2ncc(C(=O)N(CC(=O)c3c(Cl)cncc3Cl)CC(C)(C)C(F)(F)F)c2C(F)(F)F)CC[C@@H]1C(=O)O` (stereo in doubt) [Example 864, (1S,2S,4S)-4-(4-((2-(3,5-dichloro-4-pyridinyl)-2-oxoethyl)(3,3,3-trifluoro-2,2-dimethylpropyl)carbamoyl)-5-(trifluoromethyl)-1H-pyrazol-1-yl)-2-methylcyclohexanecarboxylic acid], with 2.95 nM. The figure for `O=C(c1cnn([C@H]2CC[C@H](C(=O)O)CC2)c1C(F)(F)F)N(CCc1ccccc1Cl)Cc1ccc(Cl)cc1` [Example 500, trans-4-(4-((4-chlorobenzyl)(2-(2-chlorophenyl)ethyl)carbamoyl)-5-(trifluoromethyl)-1H-pyrazol-1-yl)cyclohexanecarboxylic acid] is 15.1 nM; for `O=C(c1cnn([C@H]2CC[C@H](C(=O)O)CC2)c1C(F)(F)F)N(CCc1c(Cl)cccc1Cl)Cc1ccc(Cl)cc1` [Example 501, trans-4-(4-((4-chlorobenzyl)(2-(2,6-dichlorophenyl)ethyl)carbamoyl)-5-(trifluoromethyl)-1H-pyrazol-1-yl)cyclohexanecarboxylic acid] it is 3.8 nM; for `O=C(c1cnn([C@H]2CC[C@H](C(=O)O)CC2)c1C(F)(F)F)N(CCc1ccccc1)Cc1ccc(Cl)cc1` [Example 502, trans-4-(4-((4-chlorobenzyl)(2-phenylethyl)carbamoyl)-5-(trifluoromethyl)-1H-pyrazol-1-yl)cyclohexanecarboxylic acid] it is 275 nM. With `O=C(c1cnn([C@H]2CC[C@H](C(=O)O)CC2)c1C(F)(F)F)N(CCc1ccc2cc[nH]c2c1)Cc1ccc(Cl)cc1` [Example 503, trans-4-(4-((4-chlorobenzyl)(2-(1H-indol-6-yl)ethyl)carbamoyl)-5-(trifluoromethyl)-1H-pyrazol-1-yl)cyclohexanecarboxylic acid], the IC50 was 355 nM. Take `O=C(c1cnn([C@H]2CC[C@H](C(=O)O)CC2)c1C(F)(F)F)N(CCc1ccc(Cl)cc1Cl)Cc1ccc(Cl)cc1` [Example 504, trans-4-(4-((4-chlorobenzyl)(2-(2,4-dichlorophenyl)ethyl)carbamoyl)-5-(trifluoromethyl)-1H-pyrazol-1-yl)cyclohexanecarboxylic acid]: the IC50 was 6.92 nM.

`Cc1ccc(CCN(Cc2ccc(Cl)cc2)C(=O)c2cnn([C@H]3CC[C@H](C(=O)O)CC3)c2C(F)(F)F)c(C)c1` [Example 505, trans-4-(4-((4-chlorobenzyl)(2-(2,4-dimethylphenyl)ethyl)carbamoyl)-5-(trifluoromethyl)-1H-pyrazol-1-yl)cyclohexanecarboxylic acid]: the IC50 is 5.89 nM. The figure for `O=C(c1cnn([C@H]2CC[C@H](C(=O)O)CC2)c1C(F)(F)F)N(CCc1cccc2[nH]ccc12)Cc1ccc(Cl)cc1` [Example 506, trans-4-(4-((4-chlorobenzyl)(2-(1H-indol-4-yl)ethyl)carbamoyl)-5-(trifluoromethyl)-1H-pyrazol-1-yl)cyclohexanecarboxylic acid] is 69.2 nM; for `O=C(c1cnn([C@H]2CC[C@H](C(=O)O)CC2)c1C(F)(F)F)N(CCc1c[nH]c2ccccc12)Cc1ccc(Cl)cc1` [Example 507, trans-4-(4-((4-chlorobenzyl)(2-(1H-indol-3-yl)ethyl)carbamoyl)-5-(trifluoromethyl)-1H-pyrazol-1-yl)cyclohexanecarboxylic acid] it is 32.4 nM; for `O=C(c1cnn([C@H]2CC[C@H](C(=O)O)CC2)c1C(F)(F)F)N(CCc1cccc2cc[nH]c12)Cc1ccc(Cl)cc1` [Example 508, trans-4-(4-((4-chlorobenzyl)(2-(1H-indol-7-yl)ethyl)carbamoyl)-5-(trifluoromethyl)-1H-pyrazol-1-yl)cyclohexanecarboxylic acid] it is 759 nM. As to `Cc1ccccc1CCN(Cc1ccc(Cl)cc1)C(=O)c1cnn([C@H]2CC[C@H](C(=O)O)CC2)c1C(F)(F)F` [Example 509, trans-4-(4-((4-chlorobenzyl)(2-(2-methylphenyl)ethyl)carbamoyl)-5-(trifluoromethyl)-1H-pyrazol-1-yl)cyclohexanecarboxylic acid], the IC50 was 11.5 nM.

Turning to `Cc1cc(Cl)c(CCN(CC2CCCCC2)C(=O)c2cnn([C@H]3CC[C@H](C(=O)O)CC3)c2C(F)(F)F)c(Cl)c1` [Example 510, trans-4-(4-((cyclohexylmethyl)(2-(2,6-dichloro-4-methylphenyl)ethyl)carbamoyl)-5-(trifluoromethyl)-1H-pyrazol-1-yl)cyclohexanecarboxylic acid], the IC50 is 1.78 nM. The figure for `Cc1[nH]c2ccccc2c1CCN(Cc1ccc(Cl)cc1)C(=O)c1cnn([C@H]2CC[C@H](C(=O)O)CC2)c1C(F)(F)F` [Example 513, trans-4-(4-((4-chlorobenzyl)(2-(2-methyl-1H-indol-3-yl)ethyl)carbamoyl)-5-(trifluoromethyl)-1H-pyrazol-1-yl)cyclohexanecarboxylic acid] is 33.1 nM. Then `Cc1cc(Cl)c(CCN(CC2CCCCC2)C(=O)c2cnn([C@H]3CC[C@](C)(C(=O)O)CC3)c2C(F)(F)F)c(Cl)c1` [Example 514, trans-4-(4-((cyclohexylmethyl)(2-(2,6-dichloro-4-methylphenyl)ethyl)carbamoyl)-5-(trifluoromethyl)-1H-pyrazol-1-yl)-1-methylcyclohexanecarboxylic acid], with 1.91 nM.
